Experimental data taken from patent US6951647B2, “T cell binding ligand peptides and method of inducing a cellular immune response” (Cel-Sci Corporation, priority 2001, dated 2005).
“And” between values parts separate entries of the source, which are not always exact repeats. Equal values may be shown once.

Columns and labels:
Type in all cases: in vivo
B Clade = test: ELISA cross clade recognition by sera of immunized mice, B Clade; details: day 63 test bleeding, sera 1:200, individual mouse
Procedure: (§1) Mice in groups (5-10 animals per group as designated) are immunized with the LEAPS constructs (25 μg/dose) of SEQ ID NO's:37, 38 and 39, in 0.2 mL emulsified 1:1 with adjuvant (Seppic's ISA-51 or Corixa's microfluidized MPL S/E) on days 0 and 14. Mice are evaluated by Delayed Type of Hypersensitivity (DTH) by inoculation on day 26 with 20 μl of a solution of saline or mH (SEQ ID NO:6) (25 μg in saline) in the left or right ear respectively. The DTH response is determined by measurement of the ear thickness 48 hours later and expressed as increase in ear thickness (mm) of experimental ear compared to that of the control ear. Individual animal sera are collected for measurement of antibody on day 28, 42, 63 and 77. Sera from individual animals and group pools are evaluated for specific anti-mH antibody, for total antibody, IgG1, IgG2a and IgG3 antibody isotype and cross clade titer at selected time points as indicated.
(§2) The mouse sera for the ELISA was used at a dilution of 1:200. Again, clearly, the construct provides higher signals indicative of higher levels of the antibodies that recognized other clades besides the parental one (Clade B) of mH.
(§3) A cross clade analysis for pools of day 42 test bleedings from the same groups as used in Table 3, were obtained and the results are shown in Table 4.

C Clade = test: ELISA cross clade recognition by sera of immunized mice, C Clade; details: day 63 test bleeding, sera 1:200, individual mouse
Procedure: as §1, §2, §3

[1] = system: modified HGP-30 (mH, SEQ ID NO:6); test: Isotype analysis (ELISA) of anti-mH antibody in sera of immunized mice; set-up: IgG1 / IgG2a / IgG2b / IgG3: unit not given here; details: ELISA signal, day 42 test bleeding
Procedure: as §1
The results of an isotype analysis of day 42 test bleedings with G′-mH (SEQ ID NO:37), G-mH (SEQ ID NO:38), J-mH (SEQ ID NO:39), F-mH (SEQ ID NO:40) and F-HGP-30 (SEQ ID NO:41), are shown in Table 1.
An isotype analysis for pools of day 28 test bleedings G-mH, G′-mH and m-HGP-30/KLH using either MPL S/E or ISA51 as adjuvant, are shown in Table 3.

D Clade = test: ELISA cross clade recognition by sera of immunized mice, D Clade; details: day 63 test bleeding, sera 1:200, individual mouse
Procedure: as §1, §2, §3

E Clade = test: ELISA cross clade recognition by sera of immunized mice, E Clade; details: day 63 test bleeding, sera 1:200, individual mouse
Procedure: as §1, §2, §3

modified HGP-30 = test: ELISA antibody screening of sera of immunized mice on modified HGP-30; details: day 63 test bleeding, sera 1:200, individual mouse
Procedure: as §1, with “indicated. […]” for “indicated.”

VQG EES NDK GGG YSV HQR IDV KDT KEA LEK IEE EQN KSK KKA (DLLKNGERIEKVEGGGSTAPPAHGV) [SEQ ID NO: 63, Peptide F linked by GGG spacer to HGP-30]
ELISA signal on B Clade (B Clade): 0.000 (6×) and 0.282 and 1.977 and 0.667 and 0.011 | ELISA signal on C Clade (C Clade): 0.000 (5×) and 0.135 and 0.010 and 1.878 and 0.650 and 1.051 | IgG1 ([1]; group Average): 0.652 | IgG2a ([1]; group Average): 0.071 | IgG2b ([1]; group Average): 0.024 | IgG3 ([1]; group Average): 0.044 | IgG1 ([1]; individual mouse): 0.761 and 0.181 and 0.649 and 0.417 and 0.022 and 1.379 and 0.030 and 0.349 and 0.717 and 2.018 | IgG2a ([1]; individual mouse): 0.051 and 0.018 and 0.020 and 0.007 and 0.000 (2×) and 0.048 and 0.026 and 0.192 and 0.350 | IgG2b ([1]; individual mouse): 0.003 and 0.001 and 0.007 and 0.005 and 0.006 and 0.028 and 0.047 and 0.000 and 0.027 and 0.117 | IgG3 ([1]; individual mouse): 0.040 and 0.006 and 0.104 and 0.173 and 0.009 and 0.013 and 0.007 and 0.000 and 0.058 and 0.028 | ELISA signal on D Clade (D Clade): 0.000 (5×) and 0.012 and 0.005 and 1.941 and 0.386 and 0.050 | ELISA signal on E Clade (E Clade): 0.000 (7×) and 1.565 and 0.042 and 1.010 | ELISA signal on modified HGP-30 (modified HGP-30): 0.065 and 0.216 and 0.128 and 0.000 and 0.110 and 0.017 and 0.201 and 0.623 and 0.747 and 0.013
